Measurements: patent publication US20100209536A1, “Methods and Kits for Use in the Treatment and Prevention of Diseases or Conditions of the Immune System or Infectious Diseases” (The Brigham and Women's Hospital, Inc., priority 2006, published 2010)

Legend:
[1] = test system: any wheeze in the first 2 yrs; assay: Project Viva antioxidant study: maternal intake and any wheeze in the first 2 yrs; type: in vivo, human; settings: for Any wheeze in the first 2 yrs, Univariate Model OR (95% CI) / Any wheeze in the first 2 yrs, Multivariable Model OR (95% CI): including supplements; for Association of total maternal intake with any wheeze in univariable models: total intakes
Source text: (§1) Study subjects were enrolled in Project Viva, as described above. Recruitment and retention procedures have previously been published (Gillman et al., J. Pediatr. 144:240-245, 2004). We obtained information directly from participants and from medical records as detailed previously (Rifas-Shiman, Paediatr. Perinat. Epidemiol. 20:35-42, 2006). Data collected from interviews and questionnaires included demographics (infant gender, maternal marital status, and race), socioeconomic status (education and household income), and reproductive history (maternal gravidity, pre-pregnancy height and body mass index, and smoking). Questionnaires that inquired about infant health, feeding, and the home environment were administered when the child was 6 months, 1 year, and 2 years of age. Among 2,128 delivered infants in Project Viva, we excluded 228 participants because of missing first and second trimester diet assessment data and an additional 37 participants with a gestation of less than 34 completed weeks.
(§2) We assessed maternal diet using semi-quantitative food-frequency questionnaires (FFQ) validated for use during pregnancy (Fawzi et al., Ann. Epidemiol. 14:754-762, 2004), and used in several of our previous studies of maternal diet and offspring outcomes (Oken et al., Am. J. Epidemiol. 160:774-783, 2004; Huh et al., Int. J. Epidemiol. 34:378-384, 2005; Gillman et al., Circulation 110:1990-1995, 2004). As noted above, the FFQ used at the 1st visit reflected intakes in the 1st trimester; the time referent was “during this pregnancy,” that is from the date of the last menstrual period until the assessment, at an average of about 10 weeks gestation. To assess vitamin and supplement intake during the 1st trimester, we administered a separate interview that queried dose, duration, and brand/type of multivitamin, prescribed prenatal vitamins, and supplements. Also as noted above, the FFQ used at the 2nd visit (26 to 28 weeks of gestation) reflected intakes during the 2nd trimester; the time referent was “during the past 3 months.” The 2nd trimester instrument was the same as that for the 1st trimester except that we assessed use of vitamins/supplements as part of the self-completed FFQ.
(§3) To calculate intake of nutrients, we again used the Harvard nutrient composition database, which contains food composition values from the U.S. Department of Agriculture, supplemented by other data sources (U.S. Department of Agriculture ARS. USDA National Nutrient Database for Standard Reference, Release 14, 5R14; 2001). All nutrients were adjusted for total energy intake using the nutrient residuals method (Willett, Am. J. Clin. Nutr. 45:354-360, 1987). Mean nutrient intakes from the 1st and 2nd trimesters were used as the exposure in the analyses. If a participant only completed one FFQ, then nutrients calculated from that questionnaire were taken as the exposure of interest. One thousand one hundred and thirty-five (88.0%) of the 1,290 participants completed both FFQs, 96 (7.4%) completed the first trimester FFQ only, and 59 (4.6%) completed the second trimester FFQ only.
(§4) We ascertained the wheeze outcomes from questions from the First Year and Second Year Questionnaires: “since your child was born/since your child was […], has he/she ever had wheezing (or whistiling in the chest)?” “Any wheeze” was defined as a positive response to the question at either the first or second year questionnaire. “Recurrent wheeze” was defined as positive responses to the questions in both the first and second year questionnaires. […] “Respiratory infections” was defined as positive responses to one of three questions: “since your child was born/12 months old, have you been told by a health care professional (such as a doctor, physician assistant, or nurse practitioner) that your child has: (a) bronchiolitis; (b) pneumonia; (c) bronchitis, croup, or any other respiratory infection?” on either the first or second year questionnaires. […]

[2] = test system: recurrent wheeze in the first 2 yrs; assay: Project Viva antioxidant study: maternal intake and recurrent wheeze in the first 2 yrs; type: in vivo, human; settings: including supplements
Source text: as §1, §2, §3, §4

[3] = 2nd vs 1st (lowest) quartile of maternal intake, calorie adjusted, n = 1,161
[4] = 2nd vs 1st (lowest) quartile of maternal intake
[5] = 3rd vs 1st (lowest) quartile of maternal intake
[6] = 4th (highest) vs 1st (lowest) quartile of maternal intake
[7] = 2nd vs 1st (lowest) quartile of maternal intake, n = 1,038

SMILES | Any wheeze in the first 2 yrs, Univariate Model OR (95% CI) [1, 3] | Any wheeze in the first 2 yrs, Multivariable Model OR (95% CI) [1, 4] | Any wheeze in the first 2 yrs, Multivariable Model OR (95% CI) [1, 5] | Any wheeze in the first 2 yrs, Univariate Model OR (95% CI) [1, 5] | Any wheeze in the first 2 yrs, Multivariable Model OR (95% CI) [1, 6] | Any wheeze in the first 2 yrs, Univariate Model OR (95% CI) [1, 6] | Association of total maternal intake with any wheeze in univariable models [1] | Recurrent wheeze in the first 2 yrs, Multivariable Model OR (95% CI) [2, 4] | Recurrent wheeze in the first 2 yrs, Univariate Model OR (95% CI) [2, 7] | Recurrent wheeze in the first 2 yrs, Multivariable Model OR (95% CI) [2, 5] | Recurrent wheeze in the first 2 yrs, Univariate Model OR (95% CI) [2, 5] | Recurrent wheeze in the first 2 yrs, Multivariable Model OR (95% CI) [2, 6] | Recurrent wheeze in the first 2 yrs, Univariate Model OR (95% CI) [2, 6]
Nc1nc2ncc(CNc3ccc(C(=O)N[C@@H](CCC(=O)O)C(=O)O)cc3)nc2c(=O)[nH]1 [Folic acid, folic acid] | 0.94 (0.67, 1.32) | 1.13 (0.78, 1.64) | 0.79 (0.54, 1.16) | 0.63 (0.44, 0.89)^5 | 0.89 (0.60, 1.31) | 0.64 (0.45, 0.91)^5 | associated with lower risks | 0.93 (0.55, 1.58) | 0.77 (0.48, 1.24) | 0.75 (0.43, 1.28) | 0.58 (0.35, 0.95)^5 | 0.68(0.38, 1.22) | 0.46 (0.27, 0.78)^5
CC1=C(/C=C/C(C)=C/C=C/C(C)=C/C=C/C=C(C)/C=C/C=C(C)/C=C/C2=C(C)CCCC2(C)C)C(C)(C)CCC1 [β Carotene, β-carotene] | 1.01 (0.71, 1.41) | 1.28 (0.88, 1.88) | 1.21 (0.82, 1.77) | 0.85 (0.60, 1.20) | 0.98 (0.66, 1.47) | 0.71 (0.50, 1.02) | associated with lower risks | 1.24 (0.72, 2.13) | 0.85 (0.52, 1.37) | 1.23 (0.72, 2.13) | 0.76 (0.46, 1.24) | 1.01 (0.56, 1.81) | 0.58 (0.34, 0.97)^5
CC1=C(/C=C/C(C)=C/C=C/C(C)=C/C=C/C=C(C)/C=C/C=C(C)/C=C/C2=C(C)C[C@@H](O)CC2(C)C)C(C)(C)CCC1 [β Cryptoxanthin] | 0.80 (0.57, 1.13) | 0.82 (0.57, 1.18) | 0.81 (0.56, 1.18) | 0.72 (0.51, 1.02) | 0.97 (0.67, 1.41) | 0.92 (0.66, 1.30) |  | 1.33 (0.78, 2.28) | 1.36 (0.82, 2.24) | 0.97 (0.55, 1.72) | 0.95 (0.56, 1.63) | 1.28 (0.73, 2.26) | 1.05 (0.62, 1.78)
CC(C)=CCC/C(C)=C/C=C/C(C)=C/C=C/C(C)=C/C=C/C=C(C)/C=C/C=C(C)/C=C/C=C(\C)CCC=C(C)C [Lycopene, lycopene] | 1.27 (0.90, 1.80) | 1.50 (1.02, 2.19) | 1.67 (1.14, 2.45) | 1.26 (0.90, 1.79) | 0.96 (0.64, 1.42) | 0.83 (0.58, 1.19) |  | 1.06 (0.62, 1.83) | 0.88 (0.53, 1.46) | 1.40 (0.82, 2.40) | 1.01 (0.62, 1.64) | 0.75 (0.42, 1.33) | 0.70 (0.42, 1.17)
CC1=CCCC(C)(C)C1/C=C/C(C)=C/C=C/C(C)=C/C=C/C=C(C)/C=C/C=C(C)/C=C/C1=C(C)CCCC1(C)C (stereo not drawn) [α Carotene, α-carotene] | 0.77 (0.54, 1.09) | 0.87 (0.60, 1.26) | 1.00 (0.69, 1.45) | 0.82 (0.58, 1.16) | 0.92 (0.63, 1.34) | 0.75 (0.53, 1.06) |  | 1.22 (0.71, 2.09) | 0.98 (0.60, 1.60) | 1.01 (0.57, 1.80) | 0.74 (0.43, 1.25) | 1.26 (0.72, 2.21) | 0.88 (0.53, 1.45)
[Cu] [Copper, copper] | 0.78 (0.55, 1.10) | 0.93 (0.64, 1.35) | 0.91 (0.62, 1.34) | 0.71 (0.50, 1.01) | 0.90 (0.61, 1.33) | 0.69 (0.49, 0.99)^5 | associated with lower risks | 0.75 (0.43, 1.30) | 0.63 (0.38, 1.03) | 1.02 (0.60, 1.75) | 0.67 (0.41, 1.09) | 0.90 (0.51, 1.59) | 0.57 (0.34, 0.95)^5
